Reference: patent US20160151369A1, “SUBSTITUTED 3-PHENYLPROPYLAMINE DERIVATIVES FOR THE TREATMENT OF OPHTHALMIC DISEASES AND DISORDERS” (ACUCELA INC., priority 2013, published 2016)
Where two headings read alike, the source gives them in different places.

Assays:
[1] = system: retinal isomerase activity (regeneration of 11-cis-retinal); assay: Comparative in vivo murine isomerase assay, dose response (compound A vs compound D); set-up: species or system BALB/c mice
Description: (§1) All test compounds were stored at room temperature, dessicated.
On the day prior to dose administration compound A and compound D were weighed into new empty glass vials. The compounds were dissolved in di-water at the concentration of 0.833 mg/mL compound A and 0.892 mg/mL compound D, serially diluted into various concentrations, and stored overnight at 4 OC.
56 Male BALB/c mice (Charles River Laboratories) were used for this study. The mice were approximately 8 weeks at the initiation of dosing with an average body weight of 24 grams.
The day prior to dose administration 56 BALB/c mice were placed into a dark room and dark adapted for a minimum of 12 hours prior to dose administration. The mice were maintained in the dark for the duration of the study.
Each animal was removed from its cage and dosed accordingly to the study design in Table 4 (see below). Each animal was administered 0.1 mL of the appropriate compound or vehicle via oral gavage using a 1 mL syringe fitted with a 23 gauge oral gavage needle. Two hours following dose administration, animals were removed from the dark and exposed to 5000 Lux white light for 10 minutes to photobleach their eyes.
Following the completion of the photobleach the animals were returned to the dark for 2 hours to allow for the regeneration of 11-cis-retinal in the eyes. Two hours after photobleaching each animal was euthanized with carbon dioxide followed by cervical dislocation, in the dark under red light. The light control group was euthanized immediately following photobleaching. Immediately following the cervical dislocation both eyes of each animal were removed and transferred into separate tubes, flash frozen in liquid nitrogen and stored in the dark at −80° C. until processing and analysis.
(§2) All sample processing procedures were performed in the dark under red light.
Extracted samples were analyzed using an Agilent 1100 HPLC system according to the procedure outlined in Table 6 (see below)
(§3) HPLC analysis of the eyes measures the peak area units of the 110 cis-Ral-Oxime_syn. Signal.
(§4) Data analysis % inhibition (drug vs. recovery control). % control (drug vs. light control), and One-way ANOVA (followed by Tukey's Multiple Comparison) were performed using peak area units and performed by Prism software. Data are represented as mean and standard deviation.

[2] = system: regeneration of 11-cis-retinal (isomerase); assay: Single dose time course in the in vivo isomerase assay at 0.3 mg/kg (compound A vs compound D); settings: BALB/c mice, single oral dose 0.3 mg/kg; for inhibition at 0.3 mg/kg: Mus musculus, read-out: Percent Inhibition, 0.3 mg/kg, Avg. % Inhibition
Description: as §1
On the day prior to dose administration 3-amino-1-(3-((tetrahydro-2H-pyran-4-yl)methoxy)phenyl)propan-1-ol (compound A) and 3-amino-1-(3-((tetrahydro-2H-pyran- 2-yl)methoxy)phenyl)propan-1-ol (compound D) were weighed into new empty glass vials. The compounds were dissolved in di-water at the concentration of 0.068 mg/mL and stored overnight at 4° C.
52 Male BALB/c mice (Charles River Laboratories) were used for this study. The mice were approximately 8 weeks at the initiation of dosing with an average body weight of 23 grams.
The day prior to dose administration 52 BALB/c mice were placed into a dark room and dark adapted for a minimum of 12 hours prior to dose administration. The mice were maintained in the dark for the duration of the study.
Each animal was removed from its cage and dosed accordingly to the study design in Table 10 (see below). Each animal was administered 0.1 mL of the appropriate test article or vehicle orally using a 1 mL syringe fitted with a 23 gauge oral gavage needle. At 2, 4, 6, 8, 16 or 24 hours following dose administration, animals were removed from the dark and exposed to 5000 Lux white light for 10 minutes to photobleach their eyes. Following the completion of the photobleach the animals were returned to the dark for 2 hours to allow for the regeneration of 11-cis-retinal in the eyes. Two hours after photobleaching each animal was euthanized with carbon dioxide followed by cervical dislocation, in the dark under red light. The light control group was euthanized immediately following photobleaching. Immediately following the cervical dislocation both eyes of each animal were removed and transferred into separate tubes, flash frozen in liquid nitrogen and stored in the dark at −80° C. until processing and analysis.
as §2
Extracted samples were analyzed using an Agilent 1100 HPLC system according to the procedure outlined in Table 12 (see below)
as §3, §4

[3] = system: isomerase (recovery of 11-cis-retinal after bleaching); assay: In vivo murine isomerase assay (Table 3); settings: Mus musculus, po, 4 h, mice, Dose 1 mg/kg
Description: The capability of compounds described herein to inhibit isomerase was determined by an in vivo murine isomerase assay. […] The recovery of 11-cis-retinal after bleaching can be used to estimate the activity of isomerase in vivo. Delayed recovery, as represented by lower 11-cis-retinal oxime levels, indicates inhibition of isomerization reaction.
Mice were gavaged with the test compound. […] The mice were allowed to recover 2 hours in the dark. The animals were then sacrificed by carbon dioxide inhalation. Retinoids were extracted from the eye and the regeneration of 11-cis-retinal was assessed at various time intervals.
After the mice were sacrificed, the eyes were immediately removed and placed in liquid nitrogen for storage.
The eyes were placed in 500 μL of bis-tris propane buffer (10 mM, pH˜7.3) and 20 μL of 0.8M hydroxile amine (pH˜7.3). The eyes were cut up into small pieces with small iris scissors and then thoroughly homogenized at 30000 rpm with a mechanical homogenizer (Polytron PT 1300 D) in the tube until no visible tissue remained. 500 μL of methanol and 500 μL of heptane were added to each tube. The tubes were attached to a vortexer so that the contents were mixed thoroughly for 15 minutes in room temperature. The organic phase was separated from the aqueous phase by centrifugation for 10 min at 13K rpm, 4° C. 240 μL of the solution from the top layer (organic phase) was removed and transferred to clean 300 μl glass inserts in HPLC vials using glass pipette and the vials were crimped shut tightly.
The samples were analyzed on an Agilent 1100 HPLC system with normal phase column: SILICA (Beckman Coutlier, dp 5 μm, 4.6 mM×250 mM). […] Loading volume for each sample was 100 μl; detection wavelength was 360 nm. The area under the curve for 11-cis retinal oxime was calculated by Agilent Chemstation software and was recorded manually. Data processing was performed using Prizm software.
Positive control mice (no compound administered) were sacrificed fully dark-adapted and the eye retinoids analyzed. Light (bleached) control mice (no compound administered) were sacrificed and retinoids isolated and analyzed immediately after light treatment.
A time course study was performed to determine the isomerase inhibitory activity of the test compound. […] The animals were then “photo-bleached” (5000 Lux white light for 10 minutes) at 2, 4, 8, 16 and 24 hours after dosing, and returned to darkness to allow recovery of the 11-cis-retinal content of the eyes. Mice were sacrificed 2 hours after bleaching, eyes were enucleated, and retinoid content is analyzed by HPLC.
Recovery control mice (vehicle-only treated) were light-treated and left to recover for 2 hours in the dark before sacrifice and analysis. Light control mice (vehicle only treated) were sacrificed for analysis immediately after photo-bleaching.
An in vivo dose response isomerase inhibition study was performed with test compound. […] Recovery and retinoid analysis were performed as described above. Dark control mice were vehicle-only treated, sacrificed fully dark adapted without light treatment, and analyzed. Recovery control mice and light control mice were included in the study as per the initial phase.

dose at which 11-cis-retinal recovery was inhibited by 50% (called IC50) ([1]; BALB/c mice, single oral dose, 2 h, dose response experiment): 0.59 mg/kg
SMILES: NCCC(O)c1cccc(OCC2CCCCO2)c1 (centres unmarked) [compound D, reference compound]
inhibition at 0.03 mg/kg ([1]; Mus musculus, po, 2 h, BALB/c mice, single oral dose 0.03 mg/kg, bleach 2 h after dose, drug vs. recovery control, read-out: Percent Inhibition at 2 Hours, Avg. % Inhibition): -5.3%
inhibition at 0.1 mg/kg ([1]; Mus musculus, po, 2 h, BALB/c mice, single oral dose 0.1 mg/kg, bleach 2 h after dose, drug vs. recovery control, read-out: Percent Inhibition at 2 Hours, Avg. % Inhibition): -23.9%
inhibition at 0.3 mg/kg ([1]; Mus musculus, po, 2 h, BALB/c mice, single oral dose 0.3 mg/kg, bleach 2 h after dose, drug vs. recovery control, read-out: Percent Inhibition at 2 Hours, Avg. % Inhibition): -2.1%
inhibition at 0.5 mg/kg ([1]; Mus musculus, po, 2 h, BALB/c mice, single oral dose 0.5 mg/kg, bleach 2 h after dose, drug vs. recovery control, read-out: Percent Inhibition at 2 Hours, Avg. % Inhibition): 41.4%
inhibition at 1 mg/kg ([1]; Mus musculus, po, 2 h, BALB/c mice, single oral dose 1 mg/kg, bleach 2 h after dose, drug vs. recovery control, read-out: Percent Inhibition at 2 Hours, Avg. % Inhibition): 70.2%
inhibition at 3 mg/kg ([1]; Mus musculus, po, 2 h, BALB/c mice, single oral dose 3 mg/kg, bleach 2 h after dose, drug vs. recovery control, read-out: Percent Inhibition at 2 Hours, Avg. % Inhibition): 100%
activity at 0.03 mg/kg ([1]; Mus musculus, BALB/c mice, single oral dose 0.03 mg/kg, bleach 2 h after dose, read-out: Percent control at 2 Hours (Avg. % Inhibition)): 105%
activity at 0.1 mg/kg ([1]; Mus musculus, BALB/c mice, single oral dose 0.1 mg/kg, bleach 2 h after dose, read-out: Percent control at 2 Hours (Avg. % Inhibition)): 124%
activity at 0.5 mg/kg ([1]; Mus musculus, BALB/c mice, single oral dose 0.5 mg/kg, bleach 2 h after dose, read-out: Percent control at 2 Hours (Avg. % Inhibition)): 58.6%
activity at 1 mg/kg ([1]; Mus musculus, BALB/c mice, single oral dose 1 mg/kg, bleach 2 h after dose, read-out: Percent control at 2 Hours (Avg. % Inhibition)): 29.8%
activity at 3 mg/kg ([1]; Mus musculus, BALB/c mice, single oral dose 3 mg/kg, bleach 2 h after dose, read-out: Percent control at 2 Hours (Avg. % Inhibition)): 0%
dose showing nearly 100% inhibition ([1]; dose response experiment, 2 h): 3.0 mg/kg
Percent Control, 0.3 mg/kg (average) ([2]; Time Point 2 Hours): 86.8%
Percent Control, 0.3 mg/kg (average) ([2]; Time Point 4 Hours): 101.8%
Percent Control, 0.3 mg/kg (average) ([2]; Time Point 6 Hours): 87.9%
Percent Control, 0.3 mg/kg (average) ([2]; Time Point 8 Hours): 94.6%
Percent Control, 0.3 mg/kg (average) ([2]; Time Point 16 Hours): 104.1%
Percent Control, 0.3 mg/kg (average) ([2]; Time Point 24 Hours): 89.5%
inhibition at 0.3 mg/kg ([2]; Time Point 2 Hours): 13.2%
inhibition at 0.3 mg/kg ([2]; Time Point 4 Hours): -1.8%
inhibition at 0.3 mg/kg ([2]; Time Point 6 Hours): 12.1%
inhibition at 0.3 mg/kg ([2]; Time Point 8 Hours): 5.4%
inhibition at 0.3 mg/kg ([2]; Time Point 16 Hours): -4.1%
inhibition at 0.3 mg/kg ([2]; Time Point 24 Hours): 10.5%
inhibition at 1 mg/kg [3]: 57%
